≈ marks a conversion by molar mass, not a printed value. Where a name gives a salt, the structure may show the parent alone. Read-outs that look alike come from different tables or passages of the source.
Tests used:
[1] = tested on: P388 murine leukemia cells; test: In vivo antitumor activity against P388 murine leukemia cell; parameters: species or system BDF1 mouse; settings: once per 2 days for 10 days, median survival time
Description: In vivo antitumor activity against P388 murine leukemia cell
P388 murine leukemia cells were injected into BDF1 mouse intraperitoneally and grown in the peritoneal cavity. The P388 cells were periodically exudated and reinjected intraperitoneally into mouse for subculture.
The cells were exudated, washed, resuspended in saline (2×10^7 cells/ml), and then injected intraperitoneally again into BDF1 mouse (2×10^6 cells/0.1 ml).
Test compound dissolved in appropriate vehicle was administered intraperitonealy or orally into the mouse which was implanted with P388 murine leukemia tumor cells in the frequency of once per 2 days for 10 days. The vehicle was administered into the mouse of control group. Then, the number of live animals were daily checked to estimate the median survival time (MST).
T/C ratio(%) of each test compound was calculated according to the following formula, and the test results are shown in Table 6.
T/C(%)=(MST of test group.div.MST of control group)×100

[2] = tested on: Colo205 (ATCC CCL 222): human colon adenocarcinoma; test: In vitro antitumor activity, MTT assay, Colo205; assay type: cell-based; settings: for IC50: Homo sapiens
Description: (§1) In vitro antitumor activity against human tumor cell lines
(§2) In vitro antitumor activity of the compounds according to the present invention was determined by MTT assay method against the following human tumor cell lines:
Colo205 (ATCC CCL 222): human colon adenocarcinoma
(§3) In this test, the known antineoplastic compounds, Doxorubicin and Sulofenur, were used as the comparative agents.
(§4) Each of the tumor cells was cultured in RPMI 1640 media containing 10% fetal bovine serum, 100 IU/ml penicillin and 100 μg/ml streptomycin, and then periodically subcultured once or twice per week in trypsin-EDTA solution containing 0.05% trypsin and 0.53mM EDTA.4Na. The human tumor cell line thus obtained (10,000cells/100 μl) was plated on 96-well microplate and then cultured for 24 hrs at 37° C. in a 5% CO2 incubator. Test compound was dissolved in DMSO, sterilized with 0.22 μm PVDF filter, and then serially 5-fold diluted from 40 μg/ml to 0.00256μg/ml. 100 μl of the sample solution thus prepared and RPMI 1640 medium only (control group) were added to 96-well microplate containing the human tumor cell, respectively. The final concentration of the test compound was in the range from 20 μg/ml to 0.00128 μg/ml and the concentration of DMSO was below 0.5%. The cells were cultured for 48 hrs at 37° C. in a 5% CO2 incubator. MTT(3-(4,5-Dimethylthiazole-2-yl)-e,5-diphenyltetrazoliumbromide) was dissolved in physiological saline in a concentration of 2 mg/ml and the resulting solution was filtered through 0.22 μm PTFE filter. 25 μl of MTT solution thus prepared was added to each well of 96-well microplate and incubated for additional 4 hrs at 37° C. in a 5% CO2 incubator. Then, the content of microplate was centrifuged at 1000 rpm for 10 min, and supernatant was removed by flicking. The formazan formed from MTT by mitochondrial succinate dehydrogenase was dissolved in 100 μl of DMSO. The absorbance of each well was measured at 540nm by micro ELISA reader and the cytotoxicity was calculated by dividing the absorbance of test group by the absorbance of control group. After the calculated cytotoxicity (%) was plotted, the concentration of 50% tumor growth inhibition concentration (IC50) was estimated by Linear-Regression method.

[3] = tested on: A549 (ATCC CCL 185): human lung carcinoma; test: In vitro antitumor activity, MTT assay, A549; assay type: cell-based; settings: for IC50: Homo sapiens, A549, 48 h
Description: as §1, §2
A549 (ATCC CCL 185): human lung carcinoma
as §3, §4

[4] = tested on: SK-OV-3 (ATCC HTB 77): human ovarian adenocarcinoma; test: In vitro antitumor activity, MTT assay, SK-OV-3; assay type: cell-based; settings: for IC50: Homo sapiens
Description: as §1, §2
SK-OV-3 (ATCC HTB 77): human ovarian adenocarcinoma
as §3, §4

[5] = tested on: K562 (ATCC CCL 243): human chronic myelogenous leukemia; test: In vitro antitumor activity, MTT assay, K562; assay type: cell-based; settings: Homo sapiens, K562, 48 h, Table 3, read-out: IC50 (K562)
Description: as §1, §2
K562 (ATCC CCL 243): human chronic myelogenous leukemia
as §3, §4

[6] = tested on: KB (ATCC CCL 17): human epidermoid carcinoma; test: In vitro antitumor activity, MTT assay, KB; assay type: cell-based; settings: MTT, 48 hrs; for IC50: Homo sapiens, read-out: IC50 (KB)
Description: as §1, §2
KB (ATCC CCL 17): human epidermoid carcinoma
as §3, §4

[7] = COLO 205, Table 1, 48 hrs, read-out: IC50 (Colo205)
[8] = COLO 205, Table 2, 48 hrs, read-out: IC50 (Colo205)

IC50 [2, 7] | IC50 ([6]; Table 1) | IC50 ([3]; Table 1) | IC50 ([4]; SK-OV-3, Table 1, 48 hrs) | IC50 [2, 8] | IC50 ([6]; Table 2) | IC50 ([3]; Table 2) | IC50 ([4]; SK-OV-3, Table 2, 48 hrs) | Compound | further results
0.861 µg/mL | 0.072 µg/mL | 0.321 µg/mL | 0.509 µg/mL | – | – | – | – | CC1Cc2cc(S(=O)(=O)n3cc(-c4ccccc4)[nH]c3=O)ccc2N1C(=O)c1ccc(N)cc1 (centres unmarked) [Example 12, 4-phenyl-1-[N-(4-aminobenzoyl)-2-methylindoline-5-sulfonyl]-2-imidazolone.HCl] | T/C rate (%) ([1]; 65 mg/kg p.o.): 115.4%
0.265 µg/mL (≈ 0.621 µM) | 0.006 µg/mL (≈ 0.0141 µM) | 0.111 µg/mL (≈ 0.26 µM) | 0.509 µg/mL (≈ 1.19 µM) | – | – | – | – | CCNC(=O)N1c2ccc(S(=O)(=O)n3cc(-c4ccccc4)[nH]c3=O)cc2CC1C (centres unmarked) [Example 3, 4-phenyl-1-(N-ethylcarbamoyl-2-methylindoline-5-sulfonyl)-2-imidazolone] | –
– | – | – | – | 3.8 µg/mL | 0.688 µg/mL | 3.24 µg/mL | 3.08 µg/mL | CNCC(=O)N1c2ccc(S(=O)(=O)n3cc(-c4ccccc4)[nH]c3=O)cc2CC1C (centres unmarked) [Example 22, 4-phenyl-1-(N-methylaminoacetyl-2-methylindoline-5-sulfonyl)-2-imidazolone.HCl] | –
– | – | – | – | 9.09 µg/mL | 1.99 µg/mL | 5.47 µg/mL | 10.1 µg/mL | CC(C)CNCC(=O)N1CCc2cc(S(=O)(=O)n3cc(-c4ccccc4)[nH]c3=O)ccc21 [Example 26, 4-phenyl-1-(N-isobutylaminoacetylindoline-5-sulfonyl)-2-imidazolone.HCl] | –

Continued, molecule first:

Compound | IC50 [2, 7] | IC50 ([6]; Table 1) | IC50 ([3]; Table 1) | IC50 ([4]; SK-OV-3, Table 1, 48 hrs) | IC50 [2, 8] | IC50 ([6]; Table 2) | IC50 ([3]; Table 2) | IC50 ([4]; SK-OV-3, Table 2, 48 hrs) | further results
O=C(Nc1ccccc1)N1CCc2cc(S(=O)(=O)N3CC(c4ccccc4)NC3=O)ccc21 (centres unmarked) [Example 34, 4-phenyl-1-(N-phenylcarbamoylindoline-5-sulfonyl)-4,5-dihydro-2-imidazolone] | – | – | – | – | – | – | – | – | T/C rate (%) ([1]; 6.25 mg/kg i.p.): 140.9%; IC50 ([2]; COLO 205, Table 3, 48 hrs, read-out: IC50 (Col205)): 1.26 µg/mL (≈ 2.72 µM); IC50 ([3]; Table 3): 0.178 µg/mL (≈ 0.385 µM); IC50 ([4]; SK-OV-3, Table 3, 48 hrs): 0.16 µg/mL (≈ 0.346 µM); IC50 [5]: < 0.0064 µg/mL
O=C(c1cccnc1)N1CCc2cc(S(=O)(=O)n3cc(-c4ccccc4)[nH]c3=O)ccc21 [Example 15, 4-phenyl-1-(N-nicotinylindoline-5-sulfonyl)-2-imidazolone] | 0.382 µg/mL (≈ 0.856 µM) | 0.015 µg/mL (≈ 0.0336 µM) | 0.112 µg/mL (≈ 0.251 µM) | 0.446 µg/mL (≈ 0.999 µM) | – | – | – | – | –
O=C(c1ccco1)N1CCc2cc(S(=O)(=O)n3cc(-c4ccccc4)[nH]c3=O)ccc21 [Example 16, 4-phenyl-1-(N-furanoylindoline-5-sulfonyl)-2-imidazolone] | – | – | – | – | – | – | – | – | IC50 (Colo205) ([2]; Table 1, 48 hrs): 0.460 µg/mL (≈ 1.06 µM); IC50 (KB) ([6]; Table 1): 0.011 µg/mL (≈ 0.0253 µM); IC50 (A549) ([3]; Table 1, 48 hrs): 0.065 µg/mL (≈ 0.149 µM); IC50 (SK-OV-3) ([4]; Table 1, 48 hrs): 2.074 µg/mL (≈ 4.76 µM)
O=C(CCl)Nc1ccc(C(=O)N2CCc3cc(S(=O)(=O)n4cc(-c5ccccc5)[nH]c4=O)ccc32)cc1 [Example 19, 4-phenyl-1-[N-(4-chloroacetylaminobenzoyl)indoline-5-sulfonyl]-2-imidazolone] | – | – | – | – | 0.58 µg/mL (≈ 1.08 µM) | 0.046 µg/mL (≈ 0.0857 µM) | 0.438 µg/mL (≈ 0.816 µM) | 0.202 µg/mL (≈ 0.376 µM) | –
Nc1ccc(C(=O)N2CCc3cc(S(=O)(=O)n4cc(-c5ccccc5)[nH]c4=O)ccc32)cc1 [Example 10, 4-phenyl-1-[N-(4-aminobenzoyl)indoline-5-sulfonyl]-2-imidazolone.HCl] | 0.334 µg/mL | 0.0001 µg/mL | 0.23 µg/mL | 0.529 µg/mL | – | – | – | – | –
